# Test results taken from ChEMBL document CHEMBL4382196, “Unraveling the Prenylation-Cancer Paradox in Multiple Myeloma with Novel Geranylgeranyl Pyrophosphate Synthase (GGPPS) Inhibitors” (J Med Chem, 2018).
# Activity calls are given as the source filed them. The calls are words filed in the database; no cut-off is given here.
# Experiments:
# RPMI-8226 [1] = assay: Induction of apoptosis in human RPMI8226 cells assessed as early apoptotic cells at 10 uM after 72 hrs by APC Annexin V/eFluor-780-viability double staining-based FACS analysis (reference value: 3.31%); format: functional
# RPMI-8226 [2] = assay: Induction of apoptosis in human RPMI8226 cells assessed as necrotic cells at 10 uM after 72 hrs by APC Annexin V/eFluor-780-viability double staining-based FACS analysis (reference value: 3.60%); format: functional
# RPMI-8226 [3] = assay: Induction of apoptosis in human RPMI8226 cells assessed as late apoptotic cells at 10 uM after 72 hrs by APC Annexin V/eFluor-780-viability double staining-based FACS analysis (reference value: 5.80%); format: functional
# RPMI-8226 [4] = assay: Induction of apoptosis in human RPMI8226 cells assessed as viable cells at 10 uM after 72 hrs by APC Annexin V/eFluor-780-viability double staining-based FACS analysis (reference value: 87.3%); format: functional; details: RPMI-8226, 72 h, read-out: Activity
# RPMI-8226 [5] = assay: cells; details: Homo sapiens, RPMI-8226, 72 h
# Homo sapiens = species on record: Homo sapiens; assay: Selectivity ratio of IC50 for human FPPS to IC50 for human N-terminal His6-tagged GGPPS
# [6] = target: Geranylgeranyl pyrophosphate synthase (Homo sapiens, UniProt O95749, Y246D)
# Chain of Geranylgeranyl pyrophosphate synthase (Homo sapiens, UniProt O95749, Y246D) (O95749 whole entry Y246D): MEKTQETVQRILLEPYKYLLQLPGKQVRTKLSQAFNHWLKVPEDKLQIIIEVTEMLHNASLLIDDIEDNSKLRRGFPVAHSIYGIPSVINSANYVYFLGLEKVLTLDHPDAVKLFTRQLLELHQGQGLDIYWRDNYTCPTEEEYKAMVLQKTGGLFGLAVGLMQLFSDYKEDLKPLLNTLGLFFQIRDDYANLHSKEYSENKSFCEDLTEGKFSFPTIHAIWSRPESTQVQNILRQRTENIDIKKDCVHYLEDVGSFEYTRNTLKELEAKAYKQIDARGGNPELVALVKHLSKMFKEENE
# [7] = Hepatotoxicity in Vk*MYC transgenic mouse model assessed as effect of serum AST levels at 3 mg/kg/day, ip administered over 14 days and measured at 4 hrs post last dose relative to control; format: toxicity, organism-based; details: in vivo
# NCI/ADR-RES = assay: Antiproliferative activity against human NCI-ADR-RES cells after 72 hrs by celltiter-glo luminescent assay; format: functional, cell-based
# RPMI-8226 [8] = assay: Induction of apoptosis in human RPMI8226 cells assessed as early apoptotic cells at 1 uM after 72 hrs by APC Annexin V/eFluor-780-viability double staining-based FACS analysis (reference value: 3.31%); format: functional
# MIA PaCa-2 = assay: Antiproliferative activity against human MIAPaCa2 cells at 10 uM after 72 hrs by celltiter-glo luminescent assay; format: functional, cell-based
# [9] = Half life in CD1 mouse liver microsomes by LC-MS/MS analysis; format: ADME, Microsome
# [10] = Half life in human liver microsomes by LC-MS/MS analysis; format: ADME, Microsome
# RPMI-8226 [11] = assay: Induction of apoptosis in human RPMI8226 cells assessed as necrotic cells at 1 uM after 72 hrs in presence GGOH by APC Annexin V/eFluor-780-viability double staining-based FACS analysis (reference value: 3.60%); format: functional
# RPMI-8226 [12] = assay: Induction of apoptosis in human RPMI8226 cells assessed as viable cells at 1 uM after 72 hrs by APC Annexin V/eFluor-780-viability double staining-based FACS analysis (reference value: 87.3%); format: functional; details: RPMI-8226, 72 h, read-out: Activity
# [13] = Toxicity in Vk*MYC transgenic mouse model assessed as weight loss at 3 mg/kg/day, ip administered over 14 days and measured at 4 hrs post last dose (reference value: 10 to 16%); format: organism-based; details: in vivo
# RPMI-8226 [14] = assay: Induction of apoptosis in human RPMI8226 cells assessed as early apoptotic cells at 1 uM after 72 hrs in presence GGOH by APC Annexin V/eFluor-780-viability double staining-based FACS analysis (reference value: 3.31%); format: functional
# [15] = Hepatotoxicity in Vk*MYC transgenic mouse model assessed as effect of serum ALT levels at 3 mg/kg/day, ip administered over 14 days and measured at 4 hrs post last dose relative to control; format: toxicity, organism-based; details: in vivo
# RPMI-8226 [16] = assay: Induction of apoptosis in human RPMI8226 cells assessed as viable cells at 1 uM after 72 hrs in presence GGOH by APC Annexin V/eFluor-780-viability double staining-based FACS analysis (reference value: 87.3%); format: functional; details: RPMI-8226, 72 h, read-out: Activity
# RPMI-8226 [17] = assay: Induction of apoptosis in human RPMI8226 cells assessed as late apoptotic cells at 1 uM after 72 hrs by APC Annexin V/eFluor-780-viability double staining-based FACS analysis (reference value: 5.80%); format: functional
# RPMI-8226 [18] = assay: Induction of apoptosis in human RPMI8226 cells assessed as late apoptotic cells at 1 uM after 72 hrs in presence GGOH by APC Annexin V/eFluor-780-viability double staining-based FACS analysis (reference value: 5.80%); format: functional
# RPMI-8226 [19] = assay: Induction of apoptosis in human RPMI8226 cells assessed as necrotic cells at 1 uM after 72 hrs by APC Annexin V/eFluor-780-viability double staining-based FACS analysis (reference value: 3.60%); format: functional
# [20] = target: T1, Farnesyl pyrophosphate synthase (Homo sapiens, UniProt P14324); assay: Inhibition of human FPPS using [14C]-IPP and […] after 10 mins by scintillation counting
# T1 sequence (P14324 whole entry): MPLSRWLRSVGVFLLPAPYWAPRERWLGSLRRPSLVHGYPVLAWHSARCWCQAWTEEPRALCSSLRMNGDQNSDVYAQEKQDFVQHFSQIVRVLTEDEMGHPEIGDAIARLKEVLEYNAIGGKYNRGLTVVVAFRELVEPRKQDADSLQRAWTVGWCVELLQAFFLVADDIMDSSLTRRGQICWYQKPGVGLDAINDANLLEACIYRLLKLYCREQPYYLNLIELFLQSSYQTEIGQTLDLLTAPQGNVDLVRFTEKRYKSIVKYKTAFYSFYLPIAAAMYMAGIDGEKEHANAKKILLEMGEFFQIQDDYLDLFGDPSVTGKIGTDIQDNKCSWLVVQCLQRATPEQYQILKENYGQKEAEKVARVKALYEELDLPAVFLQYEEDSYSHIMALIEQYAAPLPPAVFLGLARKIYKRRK
# [21] = Half life in Sprague-Dawley rat liver microsomes by LC-MS/MS analysis; format: ADME, Microsome
# Hydroxyapatite = assay: Binding affinity to bone mineral hydroxyapatite at 50 uM by 1H NMR assay
# [22] = target: T2, Farnesyl pyrophosphate synthase (Homo sapiens) (UniProt P14324); assay: Inhibition of human FPPS at 1 uM using [14C]-IPP and […] after 10 mins by scintillation counting relative to control
# T2 sequence (whole entry): T1 sequence (P14324 whole entry)
# [23] = target: T3, Geranylgeranyl pyrophosphate synthase (Homo sapiens) (UniProt O95749); assay: Inhibition of human N-terminal His6-tagged GGPPS expressed in Escherichia coli BL21(DE3) at 1 uM using [14C]-IPP and FPP as substrates after 10 mins by scintillation counting relative to control
# T3 sequence (whole entry): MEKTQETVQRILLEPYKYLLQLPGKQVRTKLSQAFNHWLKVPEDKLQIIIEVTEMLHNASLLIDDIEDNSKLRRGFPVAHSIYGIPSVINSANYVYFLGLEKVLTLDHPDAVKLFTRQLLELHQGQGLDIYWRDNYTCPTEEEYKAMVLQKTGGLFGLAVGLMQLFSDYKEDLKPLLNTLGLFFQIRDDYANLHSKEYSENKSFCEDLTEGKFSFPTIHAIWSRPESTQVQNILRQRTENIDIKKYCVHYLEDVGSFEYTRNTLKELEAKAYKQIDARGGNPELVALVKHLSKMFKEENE
# [24] = target: T4, Geranylgeranyl pyrophosphate synthase (Homo sapiens, UniProt O95749)
# T4 sequence (O95749 whole entry): T3 sequence (whole entry)
smiles,measurement,setting,value
CC(C)=CCC/C(C)=C/CC/C(C)=C/CC/C(C)=C/CO [GERANYLGERANIOL],Activity,RPMI-8226 [1],4.71%
same,Activity,RPMI-8226 [2],2.91%
same,Activity,RPMI-8226 [3],4.96%
same,viability at 10 µM,RPMI-8226 [4],87.4%
O=C(Nc1cccc(-c2nc(NC(P(=O)(O)O)P(=O)(O)O)c3ccsc3n2)c1)c1ccccc1,EC50,RPMI-8226 [5],500 nM
same,Ratio IC50,Homo sapiens,30
same,IC50,[6],39 nM
COc1ccc(NC(=O)c2cccc(-c3nc(NC(P(=O)(O)O)P(=O)(O)O)c4ccsc4n3)c2)cc1F,Activity,[7],Toxic
same,Activity,NCI/ADR-RES,Active
same,Activity,RPMI-8226 [8],4.42%
same,Activity,MIA PaCa-2,Active
same,t1/2,[9],2.13 h
same,t1/2,[10],2.57 h
same,Activity,RPMI-8226 [11],5.33%
same,viability at 1 µM,RPMI-8226 [12],12.3%
same,Activity,[13],15 to 28%
same,Activity,RPMI-8226 [14],3.06%
same,Activity,[15],Toxic
same,viability at 1 µM,RPMI-8226 [16],85.4%
same,Activity,RPMI-8226 [17],43%
same,Activity,RPMI-8226 [18],6.18%
same,Activity,RPMI-8226 [19],40.2%
same,IC50,[20],1400 nM
same,t1/2,[21],3.12 h
same,Activity,Hydroxyapatite,Active
O=P(O)(O)C(Nc1ncnc2sccc12)P(=O)(O)O,inhibition,[22],70%
same,inhibition,[23],40%
same,IC50,[24],> 1000 nM
same,IC50,[20],800 nM
O.O=P(O)(O)C(O)(Cn1ccnc1)P(=O)(O)O [ZOLEDRONIC ACID],Activity,RPMI-8226 [8],2.55%
same,viability at 1 µM,RPMI-8226 [12],85.9%
same,Activity,RPMI-8226 [17],6.53%
same,Activity,RPMI-8226 [19],5.04%
same,Activity,Hydroxyapatite,Active
O=P(O)(O)C(Nc1nc(-c2ccccc2)nc2sccc12)P(=O)(O)O,IC50,[20],550 nM
O=C(Nc1ccccc1)c1cccc(-c2nc(NC(P(=O)(O)O)P(=O)(O)O)c3ccsc3n2)c1,EC50,RPMI-8226 [5],460 nM
same,IC50,[24],49 nM
same,IC50,[6],50 nM
same,Activity,Hydroxyapatite,Active
